Data on 16 compounds can be found in patent publication EP0244088A2, “1-Phenyl-3-benzazepine compounds and medicaments containing these compounds for treating gastrointestinal motility disorders” (SMITHKLINE BECKMAN CORPORATION, priority 1986, dated 1987).

The first test concerns lower esophageal sphincter (LES). In words: Determination of LES pressure in the anesthetized dog. It counts as in vivo, dogs. Particulars: Canis lupus familiaris, iv, Effective Dose 20 for increase in resting LES pressure, mean of individual ED20 values (N>=3), read-out: ED20 mcg/kg, i.v. On the procedure:
Method for Determination of LES Pressure in the Anesthetized Dog
Mongrel or beagle dogs, male and female, are anesthetized using sodium pentobarbital (35.0 mg/kg., I.V.). Sodium pentobarbital is then continuously infused (approximatemated 6.0 mg/kg/hr) to maintain deep anesthesia. Blood pressure is monitored via a catheter surgically implanted into the femoral artery and attached to a Gould's P231D transducer. A catheter is also implanted into the femoral vein to administer test drugs. Respiration is maintained by an endotracheal tube attached to a respirator. A continuously perfused manometric catheter system including a Dent sleeve to measure sphincter pressure (Dent, Gastroenterology 7l: 263-267, l976) is inserted into the esophagus and positioned so that intraluminal pressure is recorded from the body of the esophagus, the lower esophageal sphincter (LES) and the fundus of the stomach. The Dent sleeve catheter is perfused at a rate of 0.5 ml of water per minute for each lumen of the catheter by using an Arndorfer Hydraulic Capillary Infusion System. A cannula is implanted into the gastric antrum to allow drainage of the perfusate solution and prevent intestinal distension. Continuous tracings of esophageal, LES and fundus pressure are monitored on a Grass Polygraph (Model 7D). Correct positioning of the Dent sleeve is verified by noting a high pressure zone at the LES and by administration of an intravenous dose of 5-HT (usually l0-l5 mcg/kg) which contracts the LES while having little or no recordable effect on either the body of the esophagus or the fundus. After verification of placement of the sleeve, the animal is allowed to stabilize for approximately 30 minutes.
Compounds are administered intravenously, intraduodenally or intragastrically. In most cases, succeeding doses of the same or different compounds are given only after the LES pressure has returned to approximate predosing baseline values. In all cases, the magnitude of change in LES pressure is determined from the baseline pressure immediately prior to each treatment to the maximum pressure during treatment. Since the compounds used usually produce an immediate effect on LES pressure, no pretreatment time prior to measurement is necessary during this testing.
Direct assay techniques are used to estimate an Effective Dose 20 (ED₂₀) for the test compound in individual animals. The mean ED₂₀ and 95% confidence limits are determined using the individual ED₂₀ values from a group of animals (N=≧3) that received the same treatment.
Consider `Oc1cc2c(cc1C(F)(F)F)CCNCC2c1ccccc1` (stereo not drawn) [compound 7, 8-Hydroxy-l-phenyl-7-trifluoromethyl-2,3,4,5-tetrahydro-lH-3-benzazepine], for which the ED20 came out at 0.02 mg/kg.

`CC(=O)Nc1cc2c(cc1O)C(c1ccccc1)CNCC2` (stereo not drawn) [compound 16, 7-Acetamido-8-hydroxy-l-phenyl-2,3,4,5-tetrahydro-lH-3-benzazepine]: the ED20 is < 2 mg/kg. On the same count and under the same terms, the value for `OCc1cc2c(cc1O)C(c1ccccc1)CNCC2` (stereo not drawn) [compound 14, 8-hydroxy-7-hydroxymethyl-l-phenyl-2,3,4,5-tetrahydro-lH-3-benzazepine] was 0.1 mg/kg. On the same count and under the same terms, the value for `CSc1cc2c(cc1O)C(c1ccccc1)CNCC2` (stereo not drawn) [compound 6, 8-hydroxy-7-methylthio-l-phenyl-2,3,4,5-tetrahydro-lH-3-benzazepine] was 0.017 mg/kg; that for `Cc1cc2c(cc1O)C(c1ccccc1)CNCC2` (stereo not drawn) [compound 5, 8-Hydroxy-7-methyl-l-phenyl-2,3,4,5-tetrahydro-lH-3-benzazepine] was 0.026 mg/kg. Consider `Cc1cc2c(cc1O)C(c1ccc(O)cc1)CNCC2` (stereo not drawn) [compound 11, 8-Hydroxy-l-(4-hydroxyphenyl)-7-methyl-2,3,4,5-tetrahydro-lH-3-benzazepine], for which the ED20 is 0.044 mg/kg. With `CS(=O)(=O)c1cc2c(cc1O)CCNCC2c1ccccc1` (stereo not drawn) [compound 2, 7-Hydroxy-8-methylsulfonyl-l-phenyl-2,3,4,5-tetrahydro-lH-3-benzazepine], the ED20 came out at 0.317 mg/kg.

As for `Oc1cc2c(cc1Br)CCNCC2c1ccccc1` (stereo not drawn) [compound 4, 7-Bromo-8-hydroxy-l-phenyl-2,3,4,5-tetrahydro-lH-3-benzazepine], the ED20 is 0.016 mg/kg.

`COc1cc2c(cc1Br)CCN(C)CC2c1ccccc1` (stereo not drawn) [compound 8, 7-Bromo-8-methoxy-3-methyl-l-phenyl-2,3,4,5-tetrahydro-lH-3-benzazepine]: the ED20 came out at 0.079 mg/kg. Still for that read-out and setting: the value for `Oc1cc(Cl)c2c(c1)C(c1ccccc1)CNCC2` (stereo not drawn) [compound 1, 6-Chloro-8-hydroxy-l-phenyl-2,3,4,5-tetrahydro-lH-3-benzazepine] was 0.445 mg/kg. On the same count and under the same terms, the value for `CS(=O)(=O)c1cc2c(cc1O)C(c1ccccc1)CNCC2` (stereo not drawn) [compound 3, 8-Hydroxy-7-methylsulfonyl-l-phenyl-2,3,4,5-tetrahydro-lH-3-benzazepine] was 0.05 mg/kg. On the same count and under the same terms, the value for `COCc1cc2c(cc1O)C(c1ccccc1)CNCC2` (stereo not drawn) [compound 13, 8-hydroxy-7-methoxymethyl-l-phenyl-2,3,4,5-tetrahydro-lH-3-benzazepine] was < 0.05 mg/kg; that for `CN1CCc2cc(Cl)c(Cl)cc2C(c2ccccc2)C1` (stereo not shown) [compound 9] was 0.623 mg/kg.

Consider `CS(=O)(=O)Nc1cc2c(cc1O)CCNCC2c1ccccc1` (stereo not drawn) [compound 15, 7-hydroxy-8-methanesulfonamido-l-phenyl-2,3,4,5-tetrahydro-lH-3-benzazepine], for which the ED20 was 0.5 mg/kg. On the same count and under the same terms, the value for `Oc1cc2c(cc1O)C(c1ccccc1)CNCC2` (stereo not drawn) [compound 10, 7,8-dihydroxy-l-phenyl-2,3,4,5-tetrahydro-lH-3-benzazepine] was 0.735 mg/kg.

The same test, now with this note: at 250 (mcg/kg per column head), i.g.
Turning to `COc1cc2c(cc1S(C)(=O)=O)CCNCC2c1ccccc1` (stereo not drawn) [compound 12, 8-Methoxy-7-methylsulfonyl-l-phenyl-2,3,4,5-tetrahydro-lH-3-benzazepine], the “change in LES pressure (baseline to maximum during treatment)” value was 15 mm Hg at 250 (i.g.).
